Tests used:
[1] = tested on: FR-positive KB tumor cells; experiment: Uptake and internalization of 177Lu-RedFols in KB tumor cells; assay type: cell-based, human; details: 4 h incubation, percent of total added activity
Experimental: The KB cells (a human cervical carcinoma cell line, subclone of HeLa cells, ACC-136) were purchased from the German Collection of Microorganisms and Cell Cultures (DSMZ, Germany). The tumor cells were cultured in folate-deficient RPMI medium (FFRPMI, Cell Culture Technologies GmbH, Gravesano, Switzerland) supplemented with 10% fetal calf serum, […] and antibiotics.
The experiments to investigate the uptake and internalization of ^177Lu-RedFols (50 MBq/nmol) were performed according to a previously established protocol (Supplementary Materials Section S9). The results were presented as a percentage of total added activity and listed as the average ± SD of 3–6 independent experiments, each performed in triplicates. The data were analyzed for statistical significance using a one-way ANOVA with Tukey’s post-comparison test (GraphPad Prism software version 8) considering a p-value < 0.05 as statistically significant. […]
S8. Radiolabeling and Radiolytic Stability of Folate Radioconjugates
Purpose: RedFols were labeled with lutetium-177 and assessed for their in vitro sta- […]
Methods: Folate conjugates were dissolved in Milli-Q water containing 4–6% sodium ascorbate (0.5 M) to obtain a final concentration of 1 mM. Radiolabeling of the RedFols with lutetium-177 (no-carrier-added, in 0.04 M HCl; ITM Medical Isotopes GmbH, Mu-nich, Germany) was performed using a mixture of sodium acetate (0.5 M) and HCl (0.05 M) at pH ~4.5 in the presence of L-ascorbic acid (6 mg) as previously reported for […]
RedFol-1 (6R and 6S). […]
S9. Uptake and Internalization of 177Lu-RedFols
Purpose: Uptake and internalization studies were performed with all folate radiocon-jugates using folate receptor (FR)-positive KB tumor cells.
Methods: The experiments were performed as previously reported. KB tumor cells (human cervical cancer cell line, ACC-136) were seeded into poly-lysine-coated 12-well plates (0.5 × 10^6 cells in 2 mL per well) using folate-free RPMI (FFRPMI) medium supplemented with 10% fetal calf serum, glutamine and antibiotics. The tumor cells were incubated overnight to allow adhesion and growth at 37 °C and 5% CO2. After removal of the supernatant, the KB cells were rinsed with PBS prior to the addition of FFRPMI me-dium without supplements (975 µL/well). The folate radioconjugates (50 MBq/nmol) were added to each well in a volume of 25 µL (0.75 pmol, 38 kBq). In some wells, KB tumor cells were co-incubated with excess folic acid (100 µM) to block the FRs on the cell surface.
After incubation of the well plates for 2 h or 4 h at 37 °C and 5% CO2, the KB tumor cells were rinsed three times with ice-cold PBS to determine the total uptake of the folate radi-oconjugates. In order to assess the internalized fraction, a stripping buffer (aqueous solu-tion of 0.1 M acetic acid and 0.15 M NaCl, pH 3) was applied to release FR-bound folate radioconjugates from the cell surface. Cell samples were lysed by addition of NaOH solu-tion (1 M, 1 mL) to each well. The cell lysates were counted for activity in a γ-counter (Perkin Elmer, Wallac Wizard 1480, Waltham, MA, USA). The protein concentrations of […]
each sample were determined using a Micro BCA Protein Assay kit (Pierce, Thermo Sci-entific) in order to standardize the measured activity to the average content of protein in […]
Results: The results are presented in the main article and in Figure S1.
Figure S1. Uptake and internalization of folate radioconjugates in KB tumor cells after an incubation period of 2 h and 4 h at 37°C. (A) Uptake of the folate radioconjugates in KB tumor cells. (B) Inter-nalized fraction of folate radioconjugates in KB tumor cells. The data are expressed as average ± SD […]
S10. FR-binding Affinity (KD Values) of 177Lu-RedFols
Purpose: The folate radioconjugates were investigated in vitro in order to determine their FR-binding affinities (KD values).
Methods: The determination of the KD values was performed as previously reported […]

[2] = molecular target: human serum albumin (HSA) in human plasma (Homo sapiens, UniProt P02768); experiment: Ultrafiltration albumin-binding assay of 177Lu-RedFols, human plasma; details: for Relative albumin-binding affinity: human blood plasma, inverse B50 ratio, normalized to the respective (6R or 6S) RedFol-1, set as 1.0; for Albumin-bound fraction: undiluted human blood plasma
Chain of human serum albumin (HSA) in human plasma (P02768 25-609): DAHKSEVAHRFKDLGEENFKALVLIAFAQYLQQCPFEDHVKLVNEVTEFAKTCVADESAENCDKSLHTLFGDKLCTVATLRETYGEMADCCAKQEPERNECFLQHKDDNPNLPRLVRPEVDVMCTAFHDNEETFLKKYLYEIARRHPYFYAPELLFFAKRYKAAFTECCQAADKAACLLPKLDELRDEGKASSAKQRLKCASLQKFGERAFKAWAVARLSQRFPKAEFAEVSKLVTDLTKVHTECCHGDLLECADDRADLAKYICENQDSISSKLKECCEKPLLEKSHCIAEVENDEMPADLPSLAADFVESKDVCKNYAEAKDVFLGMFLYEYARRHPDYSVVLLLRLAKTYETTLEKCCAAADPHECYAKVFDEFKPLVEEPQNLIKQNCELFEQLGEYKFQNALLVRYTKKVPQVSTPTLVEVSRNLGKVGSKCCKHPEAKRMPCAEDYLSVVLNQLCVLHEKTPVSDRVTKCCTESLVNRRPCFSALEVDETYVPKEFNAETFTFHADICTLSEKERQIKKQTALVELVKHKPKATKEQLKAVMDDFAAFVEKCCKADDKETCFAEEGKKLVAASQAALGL
Experimental: An ultrafiltration method was applied according to a previously published procedure (Supplementary Materials Section S11) that was different from the one reported for the ^177Lu-DOTA-ALBs to prevent non-specific binding to the filter units. Briefly, the albumin-bound fraction was determined at different molar concentration ratios of serum albumin relative to the ^177Lu-labeled RedFols using a blood plasma/PBS dilution series and constant amounts of the respective ^177Lu-labeled folate conjugate (0.3 MBq; 0.006 nmol). The albumin-bound fraction was separated from the free (albumin-unbound) fraction of each sample using Amicon centrifugal filters (cut-off of 10 kDa; Merck Millipore, Carrigtwohill, Ireland). The inserts of the filter devices were inverted and centrifuged to recover the albumin-bound fraction, whereas filter-bound activity was considered as free (albumin-unbound) folate radioconjugate. The activity of the different fractions was measured using a γ-counter (Perkin Elmer, Wallac Wizard 1480, Waltham, MA, USA), and the proportion of albumin-bound radioconjugate was set in relation to the total activity measured. The data were analyzed in analogy to those of ^177Lu-DOTA-ALBs (Section 2.1.3). The relative albumin-binding affinity was assessed by calculating the inverse ratio of the B50 value of each 6R-5-MTHF-based folate radioconjugate to the B50 value of [^177Lu]Lu-6R-RedFol-1 (set as 1.0) and of each 6S-5-MTHF-based folate radioconjugate to the B50 value of [^177Lu]Lu-6S-RedFol-1 (set as 1.0). The results were presented as average ± SD of n = 3 independent experiments. […]
S11. Relative Albumin-Binding Properties of 177Lu-RedFols
Purpose: The affinity of the folate radioconjugates to serum albumin in mouse and human blood plasma was determined and compared.
Methods: The albumin-binding affinity of the 177Lu-RedFols was assessed using mouse plasma (Rockland Immunochemicals, Inc., Pottstown, PA, USA, Lot N: 32321; MSA: ⁓550 µM) and human plasma (Stiftung Blutspende SRK Aargau-Solothurn, Aarau, Switzerland; HSA: ⁓800 µM), respectively. An ultrafiltration method was applied accord-ing to a previously published procedure that was different from the one reported for the 177Lu-DOTA-ALBs to avoid non-specific binding to the filter units.
The folate radioconjugates (50 MBq/nmol, ~300 kBq, 6 pmol in 15 µL) were added to samples of mouse and human blood plasma (150 µL), followed by incubation of the sam-ples at 37 °C for 30 min. The samples were loaded on Amicon centrifugal filters (cut-off of 10 kDa; Merck Millipore, Carrigtwohill, Ireland) followed by centrifugation (14000 rcf, 30 min, 4 °C) to allow the separation of the serum albumin-bound from the free (albumin-unbound) fractions of each sample. The inserts of the filter devices were inverted and centrifuged at 200 rcf for 3 min to recover the albumin-bound fraction. The activity of the albumin-bound fraction as well as the activity in the filtrate and in the filter unit were measured separately in a γ-counter (Perkin Elmer, Wallac Wizard 1480, Waltham, MA, USA). The percentage of radioconjugate bound to mouse and human albumin, respec-

Compound | Cell-Internalized Fraction [1] | Total Cell Uptake [1] | Relative albumin-binding affinity [2] | Albumin-bound fraction [2]
CN1c2c(nc(N)[nH]c2=O)NC[C@H]1CNc1ccc(C(=O)N[C@@H](CCC(=O)N[C@@H](CCCCNC(=O)CN2CCN(CC(=O)O)CCN(CC(=O)O)CCN(CC(=O)O)CC2)C(=O)N[C@@H](CCCCNC(=O)c2ccc(CNC(=O)CCCc3ccc(I)cc3)cc2)C(=O)O)C(=O)O)cc1 [[^177Lu]Lu-6R-RedFol-3, metal not drawn] | 19 ± 8% | 39 ± 14% | 1.1 | 97%
CN1c2c(nc(N)[nH]c2=O)NC[C@H]1CNc1ccc(C(=O)N[C@@H](CCC(=O)N[C@@H](CCCCNC(=O)CN2CCN(CC(=O)O)CCN(CC(=O)O)CCN(CC(=O)O)CC2)C(=O)N[C@@H](CCCCNC(=O)c2ccc(CNC(=O)CCCCc3ccc(I)cc3)cc2)C(=O)O)C(=O)O)cc1 [[^177Lu]Lu-6R-RedFol-25, metal not drawn] | 17 ± 3% | 29 ± 8% | 0.5 | 96%
CN1c2c(nc(N)[nH]c2=O)NC[C@H]1CNc1ccc(C(=O)N[C@@H](CCC(=O)N[C@@H](CCCCNC(=O)CN2CCN(CC(=O)O)CCN(CC(=O)O)CCN(CC(=O)O)CC2)C(=O)N[C@@H](CCCCNC(=O)CCCCc2ccc(I)cc2)C(=O)O)C(=O)O)cc1 [[^177Lu]Lu-6R-RedFol-24, metal not drawn] | 15 ± 1% | 40 ± 6% | 0.5 | 94%
CN1c2c(nc(N)[nH]c2=O)NCC1CNc1ccc(C(=O)NC(CCC(=O)NC(CCCCNC(=O)CN2CCN(CC(=O)[O-])CCN(CC(=O)[O-])CCN(CC(=O)[O-])CC2)C(=O)NC(CCCCNC(=O)c2ccc(CNC(=O)CCCc3ccc(I)cc3)cc2)C(=O)O)C(=O)O)cc1.[177Lu+3] (stereo not drawn) [[^177Lu]Lu-6S-RedFol-3] | 23 ± 8% | 44 ± 11% | 1.1 | 97%
CN1c2c(nc(N)[nH]c2=O)NCC1CNc1ccc(C(=O)NC(CCC(=O)NC(CCCCNC(=O)CN2CCN(CC(=O)[O-])CCN(CC(=O)[O-])CCN(CC(=O)[O-])CC2)C(=O)NC(CCCCNC(=O)CCCc2ccc(I)cc2)C(=O)O)C(=O)O)cc1.[177Lu+3] (stereo not drawn) [[^177Lu]Lu-6S-RedFol-1] | 18 ± 1% | 62 ± 6% | 1.0 | 98%
CN1c2c(nc(N)[nH]c2=O)NCC1CNc1ccc(C(=O)NC(CCC(=O)NC(CCCCNC(=O)CN2CCN(CC(=O)[O-])CCN(CC(=O)[O-])CCN(CC(=O)[O-])CC2)C(=O)NC(CCCCNC(=O)c2ccc(CNC(=O)CCCCc3ccc(I)cc3)cc2)C(=O)O)C(=O)O)cc1.[177Lu+3] (stereo not drawn) [[^177Lu]Lu-6S-RedFol-25] | 31 ± 3% | 55 ± 5% | 0.2 | 91%
CN1c2c(nc(N)[nH]c2=O)NC[C@H]1CNc1ccc(C(=O)N[C@@H](CCC(=O)N[C@@H](CCCCNC(=O)CN2CCN(CC(=O)O)CCN(CC(=O)O)CCN(CC(=O)O)CC2)C(=O)N[C@@H](CCCCNC(=O)CCCc2ccc(I)cc2)C(=O)O)C(=O)O)cc1 [[^177Lu]Lu-6R-RedFol-1, metal not drawn] | 12 ± 2% | 49 ± 11% | 1.0 | 98%

Reference: paper PMC10486429, “Investigations Using Albumin Binders to Modify the Tissue Distribution Profile of Radiopharmaceuticals Exemplified with Folate Radioconjugates” (Cancers, 2023)
